According to patent US8927689B2, “Peptide nanostructures and methods of generating and using the same” (Ramot at Tel-Aviv University Ltd., priority 2002, dated 2015):
Non-standard residues stand in square brackets, D forms with d. Residues, ends and D or L forms follow the SMILES beside them.

Key:
[1] = molecular target: Proteinase K (Parengyodontium album, UniProt P06873); experiment: Incubation of peptide nanotubes with Proteinase K, electron microscopy examination; type: in vitro ADME; conditions: one hour of incubation with 0.02 mg/ml of Proteinase K; compared with before incubation
Source text: For other applications, such as the assembly of nanotube based biosensors or hollow tubing of nanofluidic circuits, enzymatically stable nanotubes are desired. To assemble such stable tubes, proteolytically stable building blocks based on the D-amino-acids analogue of the peptide, NH2-D-Phe-D-Phe-COOH (SEQ ID NO: 8) were used. This peptide formed nanotubes with the same structural features as the corresponding L-amino-acids peptide (FIG. 12a).

[2] = Dissolving lyophilized peptide in 1,1,1,3,3,3-hexafluoro-2-propanol; type: physicochemical; conditions: 100 mg/ml
Protocol: Peptides (NH2-Phe-Phe-COOH, SEQ ID NO: 1) were purchased from Bachem (Budendorf, Switzerland). Freshly prepared stock solution was prepared by dissolving lyophilized form of the peptide in 1,1,1,3,3,3,-Hexafluoro-2-propanol at a concentration of 100 mg/ml. To avoid any pre-aggregation, fresh stock solution were prepared for each experiment.
Very concentrated peptide solution (i.e., 100 mg/ml) were prepared by dissolving the lyophilized peptide in 1,1,1,3,3,3 hexafluoro-2-propanol. […] Assembly into supramolecular structures was determined within minutes at the μM range, using dynamic light scattering analysis (data not shown).

Chain of Proteinase K (P06873 106-384): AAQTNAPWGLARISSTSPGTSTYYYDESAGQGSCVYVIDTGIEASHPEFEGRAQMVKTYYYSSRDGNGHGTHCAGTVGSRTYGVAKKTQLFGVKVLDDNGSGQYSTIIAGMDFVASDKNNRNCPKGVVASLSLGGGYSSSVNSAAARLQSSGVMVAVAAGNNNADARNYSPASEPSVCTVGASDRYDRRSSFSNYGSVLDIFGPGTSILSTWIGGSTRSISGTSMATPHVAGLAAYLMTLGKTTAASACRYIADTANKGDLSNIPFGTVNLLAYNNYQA

For `N[C@H](Cc1ccccc1)C(=O)N[C@H](Cc1ccccc1)C(=O)O` [D-Phe-D-Phe, NH2-D-Phe-D-Phe-COOH] (H-[dF]-[dF]-OH), which “tubular structures observed by electron microscopy after proteolysis” value [1] is on record?
The value was “no significant variation”.

For `N[C@@H](Cc1ccccc1)C(=O)N[C@@H](Cc1ccccc1)C(=O)O` [NH2-Phe-Phe-COOH] (H-Phe-Phe-OH), which “tubular structures observed by electron microscopy after proteolysis” value [1] is on record?
Its value is “no tubular structures were observed”.

What about the “solubility in the organic solvent” value [2] of the same molecule?
The value was “highly soluble”.
